Reference: patent publication US20060073121A1, “Spray formulation for pungency enhancement in Capsicum” (priority 2004, published 2006)

Tested on: Capsicum frutescens and Capsicum annuum
Test: Comparative number of folds enhancement of phenyl propanoid intermediates and capsaicinoids by optimized elicitors
Type: in vivo
Protocol: (§1) The flowers of C. frutescens were sprayed with water, which was taken as control. The fruits of C. frutescens which received different treatments were harvested on 25, 30, 35 and 40 days after anthesis and extracted with 1:2 (w/v) of acetonitrile followed by in-vacuo evaporation and resuspension with 1 ml methanol. The extracted samples were centrifuged at 4000 rpm for 10 minutes. The samples were subjected to High Performance Liquid Chromatography for quantification of phenyl proponoid intermediates and major Capsaicinoids. The mobile phase of linear gradient of 0-100 % acetonitrile in water with pH 3.0 for 35 minutes and 100% was maintained for 2 minutes at 35th minute. The detection was at 236 nm and flow rate was maintained at 1 ml/min. C-18 column of 250×4.6 mm and 5-μm diameter was used. The reagent used was of HPLC grade. The intermediates of phenyl proponoid pathway (Phenylalanine, Cinnamic acid, Coumaric acid, Caffeic acid, Ferulic acid and Vanillylamine) and two major Capsaicinoids (Capsaicin and Dihydrdcapsaicin) were purchased from Sigma Co. A standard stock solution of 1 mg/ml was prepared in methanol. 5 and 10 μl of standards and samples was injected to HPLC for three times and the mean value was calculated. Standard deviation of samples was calculated according to Tukey's method.
as §1, with “C. annuum var Arka Lohit” for “C. frutescens”, “of Acetonitrile” for “of acetonitrile”, “of 0-100%” for “of 0-100 %”, “and Dihydrocapsaicin)” for “and Dihydrdcapsaicin)”

[1] = 35 days after anthesis, optimized concentration: biotic 0.5-1% w/v, abiotic 2.5 μM

Row | SMILES | number of folds enhancement of Caffeic Acid [1] | number of folds enhancement of Capsaicin [1] | number of folds enhancement of Cinnamic Acid [1] | number of folds enhancement of Coumaric Acid [1] | number of folds enhancement of Dihydrocapsaicin [1] | number of folds enhancement of Ferulic Acid [1] | number of folds enhancement of Phenylalanine [1] | number of folds enhancement of Vanillylamine [1] | number of folds enhancement of Caffeic Acid (in vivo) | number of folds enhancement of Capsaicin (in vivo) | number of folds enhancement of Cinnamic Acid (in vivo) | number of folds enhancement of Coumaric Acid (in vivo) | number of folds enhancement of Dihydrocapsaicin (in vivo) | number of folds enhancement of Ferulic Acid (in vivo) | number of folds enhancement of Phenylalanine (in vivo) | number of folds enhancement of Vanillylamine (in vivo)
1 | CC/C=C\CC1C(=O)CCC1CC(=O)OC (stereo not shown) [Methyl Jasmonate] | 1.63-3.79 folds | 1.65-1.88 folds | 1.42-3.79 folds | 1.25-3.51 folds | 1.41-1.68 folds | 1.59-2.43 folds | 1.36-1.52 folds | 1.68-1.77 folds | – | – | – | – | – | – | – | –
2 | O=C([O-])c1ccccc1O.[Na+] [Salicylic Acid sodium salt, Salicylic acid sodium salt] | – | – | – | – | – | – | – | – | 1.45-1.75 folds | 1.26-1.58 folds | 1.36-2.50 folds | 1.28-1.67 folds | 1.11-1.32 folds | 1.11-1.28 folds | 1.02-1.44 folds | 1.26-1.28 folds
